Among the test systems are A498 renal; ACHN renal; COLO 205 colon; EKVX NSCLC; HCC-2998 colon; LXFL 529 NSCLC; M14 melanoma; MOLT-4 leukemia; NCI-H226 lung; OVCAR-4 ovarian; SF-539 CNS; SK-MEL-2 melanoma; SK-MEL-5 melanoma; SNB-75 CNS; SR leukemia; SW-620 colon; UO-31 renal; DU-145 prostate; MDA-MB-435; PC-3 prostate.
Holding throughout (assay): NCI tumour cell line growth inhibition, 48 h

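Grown in 96-well plates, cells were treated for 48 hours with each compound at five concentrations. Insufficient inhibition: endpoint recorded as highest concentration tested. At the TGI there is no net growth.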

On to `Clc1ccc(C2=NOC3C4CCC(C4)C23)cc1` (stereo unspecified), for which the TGI in the experiment on A498 renal, with ACHN renal, in the experiment with COLO 205 colon, in the experiment with EKVX NSCLC, with HCC-2998 colon and in the experiment with LXFL 529 NSCLC was greater than 100 µM in each case. Also, the TGI with M14 melanoma, with MOLT-4 leukemia, in the experiment with NCI-H226 lung, in the experiment on OVCAR-4 ovarian, in the experiment on SF-539 CNS and in the experiment with SK-MEL-2 melanoma was greater than 100 µM in each case. The TGI in the experiment with SK-MEL-5 melanoma, with SNB-75 CNS, in the experiment on SR leukemia, with SW-620 colon and in the experiment on UO-31 renal was greater than 100 µM each time.

In the case of `O=[N+]([O-])c1ccc(COc2cccc3cccnc23)cc1`, the TGI with A498 renal was 79.2 µM; in the experiment on ACHN renal it was 76.8 µM; in the experiment with COLO 205 colon it was 33.5 µM; with EKVX NSCLC, 70.3 µM; in the experiment with HCC-2998 colon it was greater than 100 µM; in the experiment on LXFL 529 NSCLC it was greater than 100 µM. For the same compound, the TGI is 29 µM with M14 melanoma; 31.4 µM with MOLT-4 leukemia; 95.4 µM with NCI-H226 lung; 36.7 µM in the experiment with OVCAR-4 ovarian; 92.7 µM in the experiment with SF-539 CNS; greater than 100 µM with SK-MEL-2 melanoma. In addition, the TGI in the experiment with SK-MEL-5 melanoma was 58.4 µM; in the experiment on SNB-75 CNS, 78.3 µM; with SR leukemia, 13.6 µM; with UO-31 renal, 68.1 µM.

Take `COc1ccc2c(c1)CCN1C3=C(CCC3)C(=O)C[C@@H]21`: the TGI in the experiment on A498 renal, in the experiment with ACHN renal, with COLO 205 colon, in the experiment on EKVX NSCLC, in the experiment with HCC-2998 colon and in the experiment with LXFL 529 NSCLC was greater than 100 µM in each case. Besides, the TGI with M14 melanoma, in the experiment with MOLT-4 leukemia, in the experiment on NCI-H226 lung, with OVCAR-4 ovarian, in the experiment on SF-539 CNS and with SK-MEL-2 melanoma was greater than 100 µM throughout. The TGI with SK-MEL-5 melanoma, in the experiment on SNB-75 CNS, in the experiment on SR leukemia, in the experiment on SW-620 colon and in the experiment on UO-31 renal was greater than 100 µM throughout.

For the compound `COc1cc2cc3c4c(cc(OC)c(OC)c4c2cc1OC)CCN3C(=O)CCC(=O)O`, the TGI with A498 renal, in the experiment with ACHN renal, in the experiment on COLO 205 colon, in the experiment with EKVX NSCLC, in the experiment with HCC-2998 colon and with LXFL 529 NSCLC was greater than 100 µM each time. The TGI with M14 melanoma, in the experiment on MOLT-4 leukemia, with NCI-H226 lung, in the experiment with OVCAR-4 ovarian, in the experiment on SF-539 CNS and in the experiment on SK-MEL-2 melanoma was greater than 100 µM each time. The TGI with SK-MEL-5 melanoma, with SR leukemia, in the experiment on SW-620 colon and in the experiment with UO-31 renal was greater than 100 µM throughout.

`COC1=CC(=O)NCCN1`: the TGI in the experiment with A498 renal, in the experiment on ACHN renal, in the experiment on COLO 205 colon, in the experiment with EKVX NSCLC, in the experiment with HCC-2998 colon and in the experiment on LXFL 529 NSCLC was greater than 100 µM in each case. The TGI in the experiment on M14 melanoma, in the experiment on MOLT-4 leukemia, in the experiment on NCI-H226 lung, in the experiment with OVCAR-4 ovarian, in the experiment with SF-539 CNS and with SK-MEL-2 melanoma was greater than 100 µM each time. Besides, the TGI was greater than 100 µM in the experiment with SK-MEL-5 melanoma; greater than 100 µM with SNB-75 CNS; greater than 100 µM with SR leukemia; 50.9 µM in the experiment on SW-620 colon; greater than 100 µM in the experiment with UO-31 renal.

On to `CCN(CC)CCNC(=O)c1nn(-c2ccc(Cl)cc2)c2c1CCc1cc(OC)ccc1-2`, for which the TGI with A498 renal was found to be 21.9 µM; with ACHN renal, 23.7 µM; in the experiment on COLO 205 colon, 6.42 µM; in the experiment on DU-145 prostate, 29.1 µM; in the experiment with EKVX NSCLC it was 23.4 µM; in the experiment on HCC-2998 colon it was 5.52 µM. The TGI turned out to be 16.4 µM in the experiment with LXFL 529 NSCLC; 5.86 µM with M14 melanoma; 23.6 µM in the experiment on MDA-MB-435; 28.5 µM in the experiment on MOLT-4 leukemia; 24.2 µM in the experiment on NCI-H226 lung; 21.9 µM with OVCAR-4 ovarian. Also, the TGI in the experiment with PC-3 prostate stood at 26.3 µM; in the experiment on SF-539 CNS, 13.4 µM; in the experiment with SK-MEL-2 melanoma, 3.18 µM; with SK-MEL-5 melanoma it was 3.17 µM; with SNB-75 CNS it was 14.5 µM; in the experiment with SR leukemia it was 22 µM. Moreover, the values for the TGI in the experiment with SW-620 colon and in the experiment on UO-31 renal were 7.59 µM and 9.24 µM, respectively.

Turning to `CCCCc1c2c(nc3c1CC/C(=C\c1ccc([N+](=O)[O-])cc1)C3=O)CCCC2`, the TGI with ACHN renal turned out to be 3.28 µM; in the experiment with COLO 205 colon, 6.63 µM; in the experiment with EKVX NSCLC, 23.7 µM; in the experiment on HCC-2998 colon, 3.17 µM; with LXFL 529 NSCLC, 2.68 µM; in the experiment with M14 melanoma, 3.34 µM. Further, the TGI in the experiment with MOLT-4 leukemia was found to be 7.72 µM; with NCI-H226 lung it was 6.5 µM; in the experiment on SF-539 CNS, 3.2 µM; in the experiment with SNB-75 CNS it was 20.6 µM; in the experiment with SR leukemia, 35.5 µM; with SW-620 colon, 3.53 µM. In the experiment with UO-31 renal, this compound registered a TGI of 4.13 µM.
